# Legend:
# [1] = tested on: focal adhesion kinase (FAK), TNF; experiment: FAK phosphorylation and TNF expression in activated PHA T cell blasts; type: cell-based, human; conditions: Mg^2+-restricted conditions
# Protocol: FIG. 2: Extracellular magnesium promotes memory-specific activation via LFA-1. Glycolytic switch of human EM CD8 T cells (a) and naïve CD8 T cells (b) subsets upon injection of anti-CD3 Ab only, or anti-CD3 and anti-CD28 Ab, was assessed by metabolic flux analysis in medium containing either 1.2 mM Mg^2+, 0 mM Mg^2+, or medium which was reconstituted from 0 mM to 1.2 mM Mg^2+ immediately prior to activation (0→1.2 mM Mg^2+). (a) Results for human effector memory (EM) and (b) for human naïve CD8 T cells. Glycolytic switch was quantified by subtracting […] measurements. (c) Flow cytometric analysis of surface activation markers on human EM CD8 T cells 24 hours after activation by plate-bound anti-CD3 Ab and soluble anti-CD28 Ab, in 1.2 mM and 0 mM Mg^2+ media, respectively. (d) Abundance of inflammatory cytokines in corresponding EM CD8 T cell culture supernatants, determined by CBA. (e) CD11a (LFA-1) surface expression on human naïve and EM CD8 T cells as well PHA T cell blasts. Flow cytometry-based assessment of total LFA-1 expression assessed by mAb TS2/4 (f), closed conformation of αL by mAb HI111 (g), extended conformation of LFA-1 by mAb Kim127 (h), open head-piece conformation of LFA-1 by mAb m24 (i), phosphorylation of focal adhesion kinase (FAK) […] as well TNF expression (k)±TCR-induced activation in different extracellular Mg^2+ concentrations. […]
# [2] = tested on: PHA T cell blasts; experiment: CD69 expression of PHA T cell blasts at increasing plate-bound anti-CD3 mAb; type: cell-based, human; conditions: augmenting concentrations of plate-bound anti-CD3 mAb; ±Mg^2+
# Protocol: FIG. 4: Magnesium regulates LFA-1 mediated T cell activation and cytotoxicity within physiologic range • (a) Metabolic flux analysis of human EM CD8 T cells upon supra-physiologic activation with anti-CD3 and anti-CD28 Ab, and additional injection of secondary, cross-linking anti-CD3/28 Ab, in medium containing 1.2 mM Mg^2+, 0 mM Mg^2+, or medium which was reconstituted to 1.2 mM Mg^2+ immediately prior to activation (0→1.2 mM Mg^2+). Pooled results from n=6 healthy donors from 3 independent experiments. (b) CD69 expression of PHA T cell blasts upon activation with indicated concentrations of plate-bound anti-CD3 mAb in ±Mg^2+ containing medium. (c) Caspase-3 activity in EL4 target cells after co-culture for 4 hours with murine WT and LFA-1^−/− CTLs in medium containing 1.2 mM Mg^2+ or 0 mM Mg^2+, in presence of PHA at the indicated concentrations. The effector to target cell ratio was 3:1. Pooled results, n=3-4, from 2 independent experiments. (d) Cytotoxicity assay using WT and LFA-1^−/− OT1 CTLs, co-cultured for 4 hours in medium containing 1.2 mM Mg^2+ or 0 mM Mg^2+ with luciferase-expressing EL4 target cells (pulsed with altered OVA peptides at 10^−6 M). Cytotoxicity was quantified after adding luciferin to medium and measuring luminescent signal intensity. […] Cytotoxicity was quantified after adding luciferin to medium and measuring luminescent signal intensity. […]
smiles,measurement,setting,value
"[Mg+2] [Mg^2+, Magnesium]",Phosphorylation of focal adhesion kinase (FAK),[1],decreased
same,CD69 expression of PHA T cell blasts,[2],less pronounced dependence

# Source: patent US20240010726A1, “LFA-1 SIGNALLING MEDIATOR FOR USE IN CANCER THERAPY” (Universität Basel, priority 2020, published 2024)
